In brackets after ≈: the same amount, converted by molar mass.
Columns and labels:
Assay in all cases: in vitro antifungal activity, twofold agar dilution method
Type in all cases: cell-based
[1] = tested on: Candida albicans; settings: KCTC1940, KCTC No 1940, potato dextrose agar
Procedure: (§1) The activities were determined by the twofold agar dilution method on potato dextrose agar medium.

[2] = tested on: Fusarium oxysporum; settings: KCTC6084, KCTC No 6084, potato dextrose agar
Procedure: as §1

[3] = tested on: Cryptococcus neoformans; settings: KCTC1197, KCTC No 1197, potato dextrose agar
Procedure: as §1

[4] = tested on: Candida glabrata; settings: Nakaseomyces glabratus, KCTC1714; KCTC No 1714; potato dextrose agar
Procedure: as §1

[5] = tested on: Microsporum canis; settings: KCTC11621, KCTC No 11621, potato dextrose agar
Procedure: as §1

[6] = tested on: Aspergillus niger; settings: KCTC2119, KCTC No 2119, potato dextrose agar
Procedure: as §1

[7] = tested on: Epidennophyton floccosum
Procedure: as §1

[8] = tested on: Rhizopus stolonifer; settings: KCTC6062, KCTC No 6062, potato dextrose agar
Procedure: as §1

[9] = tested on: Trichophyton rubrum; settings: KCTC38484, KCTC No 38484, potato dextrose agar
Procedure: as §1

[10] = tested on: Candida albicans; settings: KCTC38245
Procedure: as §1

[11] = tested on: Trichophyton mentagrophyte; settings: KCTC6085, KCTC No 6085, potato dextrose agar
Procedure: as §1

[12] = tested on: Microsporum gypseum; settings: Nannizzia gypsea, KCTC1252; KCTC No 1252; potato dextrose agar
Procedure: as §1

[13] = tested on: Saccharomyces cerevisiae; settings: KCTC1213, KCTC No 1213, potato dextrose agar
Procedure: as §1

**Q.** What does the source list for `C[C@@H]1[C@H](O)[C@@H](C)/C=C/C=C/C=C/C=C/C=C/C=C/C=C/[C@H](O[C@@H]2O[C@H](C)[C@@H](O)[C@H](N)[C@@H]2O)C[C@@H]2O[C@](O)(C[C@@H](O)C[C@@H](O)[C@H](O)CC[C@@H](O)C[C@@H](O)CC(=O)O[C@H]1C)C[C@H](O)[C@H]2C(=O)O` [Amphotericin-B]?
**A.** MIC [1]: 0.782 mg/L (≈ 0.846 µM); MIC [2]: 0.196 mg/L (≈ 0.212 µM); MIC [3]: 0.098 mg/L (≈ 0.106 µM); MIC [4]: 0.196 mg/L (≈ 0.212 µM); MIC [5]: 0.391 mg/L (≈ 0.423 µM); MIC [6]: 0.196 mg/L (≈ 0.212 µM); MIC [7]: 3.12 mg/L (≈ 3.38 µM); MIC [8]: 0.391 mg/L (≈ 0.423 µM); MIC [9]: 0.782 mg/L (≈ 0.846 µM); MIC [10]: 0.782 mg/L (≈ 0.846 µM); MIC [11]: 3.12 mg/L (≈ 3.38 µM); MIC [12]: 0.196 mg/L (≈ 0.212 µM); MIC [13]: 0.098 mg/L (≈ 0.106 µM)
